Laboratory results: patent US20230150974A1 (Foghorn Therapeutics Inc., priority 2020, published 2023)

Experiments:
[1] = target: T1, HiBiT-BRM (Homo sapiens, UniProt P51531); test: HiBiT-BRM cell-based degradation assay (Nano-Glo HiBiT Lytic Detection); settings: HeLa cells expressing HiBiT-BRM, 24 h; for DC50: read-out: BRM HiBit Degradation IC50
T1 construct: expressed in transfected cells
Summary of the method: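 Luminescence from HiBiT–LgBiT complementation in lysates of a stable HiBiT-BRM HeLa line measured after 24 h compound exposure. Degradation expressed as percent relative to DMSO-treated cells and cells given 2 μM of a known BRM/BRG1 degrader.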

[2] = target: T2, HiBit-BRG1 (Homo sapiens, UniProt P51532); test: HiBit-BRG1 cell-based degradation assay (Nano-Glo HiBiT Lytic Detection); settings: HeLa cells expressing HiBit-BRG1 and LgBit, 24 h; for DC50: read-out: BRG1 HiBit Degradation IC50; for Dmax: read-out: BRG1 HiBit Degradation Maximum (%)
T2 construct: expressed in transfected cells
T2 sequence (P51532 whole entry): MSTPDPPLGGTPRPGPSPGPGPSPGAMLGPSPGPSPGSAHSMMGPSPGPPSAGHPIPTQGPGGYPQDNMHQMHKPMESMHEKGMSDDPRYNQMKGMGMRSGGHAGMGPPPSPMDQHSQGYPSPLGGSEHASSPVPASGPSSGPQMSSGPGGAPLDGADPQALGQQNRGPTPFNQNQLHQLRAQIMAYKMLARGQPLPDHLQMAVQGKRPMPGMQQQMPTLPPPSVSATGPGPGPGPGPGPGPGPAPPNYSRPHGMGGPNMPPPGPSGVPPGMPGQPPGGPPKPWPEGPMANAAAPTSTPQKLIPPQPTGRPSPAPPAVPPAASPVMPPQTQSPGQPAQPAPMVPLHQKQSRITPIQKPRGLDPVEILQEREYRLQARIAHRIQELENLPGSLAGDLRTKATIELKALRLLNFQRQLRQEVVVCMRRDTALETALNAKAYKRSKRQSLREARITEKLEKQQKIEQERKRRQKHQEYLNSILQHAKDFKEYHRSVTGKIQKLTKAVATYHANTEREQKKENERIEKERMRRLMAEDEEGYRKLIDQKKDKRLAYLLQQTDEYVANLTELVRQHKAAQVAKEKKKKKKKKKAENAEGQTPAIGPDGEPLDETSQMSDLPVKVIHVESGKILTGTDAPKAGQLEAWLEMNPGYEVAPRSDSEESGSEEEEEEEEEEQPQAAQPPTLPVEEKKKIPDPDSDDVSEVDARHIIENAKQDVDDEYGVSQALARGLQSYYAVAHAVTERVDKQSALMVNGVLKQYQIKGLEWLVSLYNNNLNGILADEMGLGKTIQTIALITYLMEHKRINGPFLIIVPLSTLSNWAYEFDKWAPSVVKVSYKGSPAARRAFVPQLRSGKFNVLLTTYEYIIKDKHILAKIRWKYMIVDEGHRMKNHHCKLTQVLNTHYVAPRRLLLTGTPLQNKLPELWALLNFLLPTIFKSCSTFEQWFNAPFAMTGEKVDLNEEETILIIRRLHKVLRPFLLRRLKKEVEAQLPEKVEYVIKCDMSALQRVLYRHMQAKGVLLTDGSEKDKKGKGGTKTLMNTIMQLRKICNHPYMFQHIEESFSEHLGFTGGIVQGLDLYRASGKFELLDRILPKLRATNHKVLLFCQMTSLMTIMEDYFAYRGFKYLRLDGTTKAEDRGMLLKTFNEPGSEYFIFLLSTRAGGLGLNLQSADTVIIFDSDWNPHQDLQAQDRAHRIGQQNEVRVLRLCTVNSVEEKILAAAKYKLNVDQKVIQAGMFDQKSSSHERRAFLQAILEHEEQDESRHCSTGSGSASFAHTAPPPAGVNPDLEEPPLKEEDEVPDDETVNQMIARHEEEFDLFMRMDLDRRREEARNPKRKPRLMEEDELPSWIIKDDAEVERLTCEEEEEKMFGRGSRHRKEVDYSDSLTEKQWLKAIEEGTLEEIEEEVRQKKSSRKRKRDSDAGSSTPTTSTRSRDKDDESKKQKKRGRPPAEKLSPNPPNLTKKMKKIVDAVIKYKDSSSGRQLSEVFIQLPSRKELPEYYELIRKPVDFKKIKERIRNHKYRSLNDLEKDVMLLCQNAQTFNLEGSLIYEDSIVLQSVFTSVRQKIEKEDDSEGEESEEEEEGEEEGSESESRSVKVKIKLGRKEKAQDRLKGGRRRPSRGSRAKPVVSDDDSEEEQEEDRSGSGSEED
Summary of the method: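 HeLa cells stably expressing HiBiT-BRG1 plus LgBit, 5000/well, treated 24 h, then lysed with Nano-Glo HiBiT lytic reagent and luminescence read. % degradation normalised between DMSO (high control) and 2 μM reference BRM/BRG1 degrader (low control).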

T1 sequence (P51531 whole entry): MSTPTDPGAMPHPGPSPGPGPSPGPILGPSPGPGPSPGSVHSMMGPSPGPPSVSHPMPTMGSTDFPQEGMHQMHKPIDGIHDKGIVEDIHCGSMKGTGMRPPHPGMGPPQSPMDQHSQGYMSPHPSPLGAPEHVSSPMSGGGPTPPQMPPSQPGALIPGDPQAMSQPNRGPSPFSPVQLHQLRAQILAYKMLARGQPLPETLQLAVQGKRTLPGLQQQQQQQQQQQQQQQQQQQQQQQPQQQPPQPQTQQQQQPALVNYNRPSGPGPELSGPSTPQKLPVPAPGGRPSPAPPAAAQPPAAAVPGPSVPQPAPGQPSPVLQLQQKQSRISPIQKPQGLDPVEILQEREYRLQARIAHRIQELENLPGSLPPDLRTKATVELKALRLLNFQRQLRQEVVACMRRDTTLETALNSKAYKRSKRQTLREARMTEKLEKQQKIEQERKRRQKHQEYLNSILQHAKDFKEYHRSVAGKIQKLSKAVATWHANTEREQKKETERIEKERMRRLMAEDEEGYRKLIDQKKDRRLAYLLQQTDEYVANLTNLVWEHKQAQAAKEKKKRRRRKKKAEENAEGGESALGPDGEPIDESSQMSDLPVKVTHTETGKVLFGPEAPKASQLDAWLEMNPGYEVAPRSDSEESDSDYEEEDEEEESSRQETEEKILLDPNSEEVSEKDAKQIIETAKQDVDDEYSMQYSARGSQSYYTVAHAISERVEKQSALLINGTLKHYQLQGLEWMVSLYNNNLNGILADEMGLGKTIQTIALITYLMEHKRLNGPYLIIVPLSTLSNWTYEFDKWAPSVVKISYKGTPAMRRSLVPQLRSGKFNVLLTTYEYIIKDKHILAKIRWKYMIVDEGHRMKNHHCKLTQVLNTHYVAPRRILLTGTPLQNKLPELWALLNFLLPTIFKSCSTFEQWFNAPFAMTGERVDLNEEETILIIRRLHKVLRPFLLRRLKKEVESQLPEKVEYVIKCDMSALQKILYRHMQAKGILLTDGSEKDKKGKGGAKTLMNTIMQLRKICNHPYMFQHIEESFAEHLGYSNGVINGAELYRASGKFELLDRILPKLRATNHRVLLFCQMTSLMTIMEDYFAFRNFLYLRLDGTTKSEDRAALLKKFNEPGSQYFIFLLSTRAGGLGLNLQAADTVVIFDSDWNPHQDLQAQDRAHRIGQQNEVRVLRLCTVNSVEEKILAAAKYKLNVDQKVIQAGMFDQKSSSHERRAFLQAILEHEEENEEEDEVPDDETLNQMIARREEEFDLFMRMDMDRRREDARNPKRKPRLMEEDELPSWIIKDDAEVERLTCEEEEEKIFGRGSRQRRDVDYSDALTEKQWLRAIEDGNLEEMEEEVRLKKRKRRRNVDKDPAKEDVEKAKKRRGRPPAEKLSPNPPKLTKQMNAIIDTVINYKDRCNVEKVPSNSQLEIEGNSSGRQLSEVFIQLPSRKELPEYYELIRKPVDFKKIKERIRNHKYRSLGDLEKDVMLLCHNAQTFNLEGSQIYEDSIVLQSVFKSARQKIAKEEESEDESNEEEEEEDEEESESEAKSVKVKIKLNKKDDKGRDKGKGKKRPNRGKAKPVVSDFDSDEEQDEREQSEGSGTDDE

Row | Compound | DC50 [1] | DC50 [2] | Dmax [2] | BRM HiBit Degradation Maximum (%) [1]
1 | Cc1ncsc1-c1ccc([C@H](C)NC(=O)[C@@H]2C[C@@H](O)CN2C(=O)[C@@H](c2cc(OCCN3C[C@H]4CC[C@@H](C3)N4C(=O)c3ccc(CCOc4cc(-c5ccccc5O)nnc4N)cc3)no2)C(C)C)cc1 [Compound 220, (2S,4R)-1-((2R)-2-(3-(2-(8-(4-(2-((3-amino-6-(2-hydroxyphenyl)pyridazin-4-yl)oxy)ethyl)benzoyl)-3,8-diazabicyclo[3.2.1]octan-3-yl)ethoxy)isoxazol-5-yl)-3-methylbutanoyl)-4-hydroxy-N-((S)-1-(4-(4-methylthiazol-5-yl)phenyl)ethyl)pyrrolidine-2-carboxamide] | < 10 nM | > 10 nM | > 75% | A (“A” indicates maximum degradation ≥75%)
2 | Cc1ncsc1-c1ccc([C@H](C)NC(=O)[C@@H]2C[C@@H](O)CN2C(=O)[C@@H](c2cc(OCCN3[C@@H]4CC[C@H]3CN(C(=O)c3ccc(CCOc5cc(-c6ccccc6O)nnc5N)cc3)C4)no2)C(C)C)cc1 [Compound 221, (2S,4R)-1-[(2R)-2-[3-(2-[3-[4-(2-[[3-amino-6-(2-hydroxyphenyl)pyridazin-4-yl]oxy]ethyl)benzoyl]-3,8-diazabicyclo[3.2.1]octan-8-yl]ethoxy)-1,2-oxazol-5-yl]-3-methylbutanoyl]-4-hydroxy-N-[(1S)-1-[4-(4-methyl-1,3-thiazol-5-yl)phenyl]ethyl]pyrrolidine-2-carboxamide] | > 10 nM | < 10 nM | > 75% | A (“A” indicates maximum degradation ≥75%)

Now from value to molecule, other results behind:

Row | DC50 [1] | DC50 [2] | Dmax [2] | Compound | BRM HiBit Degradation Maximum (%) [1]
3 | > 1000 nM | > 1000 nM | < 50% | Cc1ncsc1-c1ccc(CNC(=O)[C@@H]2C[C@@H](O)CN2C(=O)[C@@H](NC(=O)CCN2CC3=C(C2)CN(C(=O)c2ccc(CCOc4cc(-c5ccccc5O)nnc4N)cc2)C3)C(C)(C)C)cc1 [Compound 219, (2S,4R)-1-((S)-2-(3-(5-(4-(2-((3-amino-6-(2-hydroxyphenyl)pyridazin-4-yl)oxy)ethyl)benzoyl)-3,4,5,6-tetrahydropyrrolo[3,4-c]pyrrol-2(1H)-yl)propanamido)-3,3-dimethylbutanoyl)-4-hydroxy-N-(4-(4-methylthiazol-5-yl)benzyl)pyrrolidine-2-carboxamide] | B (“B” indicates maximum degradation ≥50%)
4 | > 100 nM | > 100 nM | > 75% | Cc1ncsc1-c1ccc([C@H](C)NC(=O)[C@@H]2C[C@@H](O)CN2C(=O)[C@@H](c2cc(OCCN3CC(C4CN(C(=O)c5ccc(CCOc6cc(-c7ccccc7O)nnc6N)cc5)C4)C3)no2)C(C)C)cc1 [Compound 222, (2S,4R)-1-((R)-2-(3-(2-(1′-(4-(2-((3-amino-6-(2-hydroxyphenyl)pyridazin-4-yl)oxy)ethyl)benzoyl)-[3,3'-biazetidin]-1-yl)ethoxy)isoxazol-5-yl)-3-methylbutanoyl)-4-hydroxy-N-((S)-1-(4-(4-methylthiazol-5-yl)phenyl)ethyl)pyrrolidine-2-carboxamide] | A (“A” indicates maximum degradation ≥75%)
5 | > 100 nM | > 1000 nM | < 50% | Cc1ncsc1-c1ccc(CNC(=O)[C@@H]2C[C@@H](O)CN2C(=O)[C@@H](NC(=O)CCCCCCCCCCCCCCC(=O)N(C)Cc2ccc(CCOc3cc(-c4ccccc4O)nnc3N)cc2)C(C)(C)C)cc1 [Compound 223, N1-(4-(2-((3-amino-6-(2-hydroxyphenyl)pyridazin-4-yl)oxy)ethyl)benzyl)-N16-((S)-1-((2S,4R)-4-hydroxy-2-((4-(4-methylthiazol-5-yl)benzyl)carbamoyl)pyrrolidin-1-yl)-3,3-dimethyl-1-oxobutan-2-yl)-N1-methylhexadecanediamide] | A (“A” indicates maximum degradation ≥75%)
